# In patent EP4596534A1, “NONCOVALENT SMALL-MOLECULE INHIBITORS OF THE KEAP1-NRF2 INTERACTION” (University of Copenhagen, priority 2024, dated 2025):
# Molecular target: T1, human Keap1 Kelch domain (Homo sapiens, UniProt Q14145)
# T1 construct: human Keap1 Kelch domain (residue 321-609, UniProt Q14145); made in house; host or cells: Escherichia coli BL21 (DE3) pLysS, pRSET A vector
# Assay: Heterologous competition fluorescence polarization (FP) binding assay, Cy5-Nrf2 peptide probe
# Details: mean ± SEM of at least 3 individual measurements; Keap1 Kelch 14 nM, Cy5-Nrf2 probe 3 nM, 4% DMSO
# Description: The assay was performed in a 1 × HBSTET buffer (10 mM HEPES, 150 mM NaCl, 0.005% Tween20, 3 mM ethylenediaminetetraacetic acid (EDTA), 1 mM TCEP, pH = 7.4) using black flat-bottom 384-well plates (Corning Life Sciences, NY), a volume of 30 µL/well, and a final DMSO concentration of 4% or 8%. The assay plate was spun down to ascertain proper mixing and removal of potential air bubbles and incubated for 10-15 min at room temperature before measuring the FP levels on a Safire2 plate reader (Tecan, Männedorf, Switzerland). The g-factor was adjusted at each experiment so that a series of three blank wells containing probe but no Keap1 Kelch defined the baseline FP value. The Cy5-Nrf2 probe was measured at excitation/emission values of 635:670 nm. The FP values were fitted to the one-site specific binding equation: Y = Bmax × X/(Kd + X), with Bmax being the maximal FP value, X the Keap1 Kelch concentration, and Y the variable FP values. The Kd values were derived from the resulting binding saturation curve as being equal to the Keap1 Kelch concentration, where the curve is half-saturated.
# The affinities between nonfluorescent small molecule Keap1 inhibitors and Keap1 Kelch were determined as Ki values in a heterologous competition FP binding assay. […] FP values were fitted to the equation Y = Bottom + (Top- Bottom)/[1 + (10^HillSlope×(log IC50-X))], where X is the logarithmic value of compound concentration. Hereby, the IC50 value was obtained, which together with the Kd value and probe and Keap1 Kelch concentrations was used to calculate the theoretical competitive inhibition constant, the Ki value.^43 Ki values are shown as mean ± SEM (standard error of mean) if based on two or more individual measurements.
# T1 sequence (Q14145 321-609): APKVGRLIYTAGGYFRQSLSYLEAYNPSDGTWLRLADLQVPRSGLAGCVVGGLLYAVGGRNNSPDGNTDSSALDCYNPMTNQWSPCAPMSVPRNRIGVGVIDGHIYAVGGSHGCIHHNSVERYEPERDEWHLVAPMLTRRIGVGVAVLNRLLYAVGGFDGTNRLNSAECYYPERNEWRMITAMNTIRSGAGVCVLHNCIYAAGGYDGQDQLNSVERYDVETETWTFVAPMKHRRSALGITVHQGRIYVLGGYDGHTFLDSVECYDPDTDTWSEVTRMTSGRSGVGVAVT
row,Ki [nM],SMILES
1,590 ± 100,"CCOc1ccc(S(=O)(=O)N2CCc3ccc(C(NC(=O)c4cccc5c4-c4ccccc4C5O)C(=O)O)cc3C2)cc1C#N (stereo not shown) [Compound K32, 2-(2-((3-cyano-4-ethoxyphenyl)sulfonyl)-1,2,3,4-tetrahydroisoquinolin-7-yl)-2-(9-hydroxy-9H-fluorene-4-carboxamido)acetic acid]"
2,170 ± 40,"CCOc1ccc(S(=O)(=O)N2CCc3ccc(C(NC(=O)c4cccc5c4-c4ccccc4C54SCCS4)C(=O)O)cc3C2)cc1C#N (stereo not shown) [Compound K38, 2-(2-((3-cyano-4-ethoxyphenyl)sulfonyl)-1,2,3,4-tetrahydroisoquinolin-7-yl)-2-(spiro[fluorene-9,2'-[1,3]dithiolane]-4-carboxamido)acetic acid]"
3,930 ± 210,"O=C(O)CC(NC(=O)c1cccc2c1-c1ccccc1C2=O)c1ccc2c(c1)CN(S(=O)(=O)c1ccccc1)CC2 (stereo not shown) [Compound K46, 3-(9-oxo-9H-fluorene-4-carboxamido)-3-(2-(phenylsulfonyl)-1,2,3,4-tetrahydroisoquinolin-7-yl)propanoic acid]"
4,3600 ± 400,"CCOc1ccc(S(=O)(=O)N2Cc3ccc(C(NC(=O)c4cccc5c4-c4ccccc4C5=O)C(=O)O)cc3C2)cc1C#N (stereo not shown) [Compound K50, 2-(2-((3-cyano-4-ethoxyphenyl)sulfonyl)isoindolin-5-yl)-2-(9-oxo-9H-fluorene-4-carboxamido)acetic acid]"
